Ends that are not written are not given here.
Tests used:
[1] = tested on: T cell line with MGAR APC; assay: Antigen Processing Independent Presentation System (APIPS) assay, fresh or fixed MGAR APC; type: cell-based, DR2 mice; conditions: DR2 T cell line, IFN-γ, 24 h
Method: FIG. 4: Identification of apitopes within HIP-9FL. DR2 mice were immunized with HIP-9FL-KKK and a T cell line was established. Ten days after immunization the LN and spleens were harvested and cultured with different concentrations of peptide (0.1-1-2.5 and 5 μg/ml); 2×10^6 cells/ml APCs+1×10^6 cells/ml CD4 T cells per well. At day 7 the cells were re-stimulated with the same concentrations of peptide. On day 21 an APIPS test was done using commercial APC (MGAR). After 24 h, antigen-induced T cell activation was measured by IFN-γ ELISA and shown as OD values. The graph represents the mean of duplicate measurements±SEM. LN, lymph nodes; APC, Antigen presenting cell; APIPS, Antigen Processing Independent Presentation System.
Antigen-specific clones or TCL were tested for their reactivity to the peptides, presented by fixed or not fixed (fresh) cells (VAVY or MGAR) (=APCs). 5×10^4 cells from the individual clones were cultured with 10 μg/ml peptide and 5×10^4 fixed or fresh APCs. In the case of TCL, 5×10^4 cells were cultured with 10 μg/ml and 25 μg/ml peptide and 2.5×10^4 fixed or fresh APCs. To fixate APCs, cells were incubated with 0.5% paraformaldehyde (Merck, Darmstadt, Germany) (pH7) for 5 min at room temperature (RT). The fixation reaction was stopped by adding 0.4M glycine (Sigma-Aldrich) and washing the cells in RPMI-10% FCS. Additionally, reactivity towards human SAg protein (QBiologicals, Eurofins Amatsigroup, Ghent, Belgium) was measured to identify cryptic epitopes. After 24 h or 48 h, antigen-induced IFN-γ or IL-2 production (respectively) was measured by ELISA (R&D Systems, Abingdon, UK).
DR3tg or DR2tg mice were immunised subcutaneously in the base of the tail with 50 μg peptide emulsified in CFA (peptide/CFA). Ten days after immunisation, draining lymph nodes (LN) and spleens were harvested. […] At day 7, TCL cells were counted and cultured with fresh APC, peptides and IL-2, all at the same concentrations as above. […]

[2] = tested on: LN cells and splenocytes upon SAg or peptide restimulation; assay: Ex vivo tolerization experiment, DR2tg mice; type: in vivo; conditions: DR2 mice, IFN-γ
Method: FIG. 7: Ex vivo tolerisation protocol. Mice are injected subcutaneously in the flank with 0.1 μg/ml, 1 μg/ml and 10 μg/ml peptide on days −15, −13 and −11, followed by 3 injections of 100 μg/ml on days −8, −6 and −4 (escalating dose regime). On day 0, mice are immunized subcutaneously at the base of the tail with SAg/CFA or peptide/CFA. Mice are sacrificed 10 days after immunization to measure proliferation of LN cells and splenocytes upon SAg or peptide restimulation. LN, lymph nodes.
FIG. 11: Ex vivo tolerance induction by HIP-9K1-KKK apitope. DR2 mice are injected subcutaneously in the flank with 0.1 μg/ml, 1 μg/ml and 10 μg/ml HIP-9K1-KKK on days −15, −13 and −11, followed by 3 injections of 100 μg/ml on days −8, −6 and −4 (escalating dose regime). On day 0, mice are immunized subcutaneously at the base of the tail with HIP-9FL/CFA. Mice are sacrificed 10 days after immunization to measure proliferation of LN cells and splenocytes upon SAg or peptide restimulation. Data represent mean±SEM of the concentration values for the PBS-treated mice (black lines) and peptide-treated mice (color lines). IFN-γ production expressed as IFN-γ concentration (pg/ml). Two-way ANOVA was used to measure overall treatment effects on T cell activation and p-values are written in the graphs. Bonferonni post-hoc testing was used and significant differences are indicated in the graphs (* p<0.05; **** p<0.0001). LN, lymph nodes. (A) Tolerisation against SAg in LN. (B) Tolerisation against HIP-9FL and HIP-9K1-KKK in LN. (C) Tolerisation against SAg in spleen. (D) Tolerisation against HIP-9FL and HIP-9K1-KKK in spleen.
FIG. 13: Ex vivo tolerance induction by HIP-12G1-KKK apitope. DR2 mice are injected subcutaneously in the flank with 0.1 μg/ml, 1 μg/ml and 10 μg/ml HIP-12G1-KKK on days −15, −13 and −11, followed by 3 injections of 100 μg/ml on days −8, −6 and −4 (escalating dose regime). On day 0, mice are immunized subcutaneously at the base of the tail with HIP-12AK/CFA. Mice are sacrificed 10 days after immunization to measure proliferation of LN cells and splenocytes upon SAg or peptide restimulation. Data represent mean±SEM of the concentration values for the PBS-treated mice (black lines) and peptide-treated mice (color lines). IFN-γ production expressed as IFN-γ concentration (pg/ml). Two-way ANOVA was used to measure overall treatment effects on T cell activation and p-values are written in the graphs. Bonferonni post-hoc testing was used and significant differences are indicated in the graphs (** p<0.01; *** p<0.001: **** p<0.0001). LN, lymph nodes. (A) Tolerisation against HIP-12G1-KKK and HIP-12G1 in LN. (B) Tolerisation against HIP-12G1-KKK in spleen.
DR3tg or DR2tg mice were injected subcutaneously in the flank region with 0.1 μg, 1 μg and 10 μg of peptide on days −15, −13 and −11 respectively, followed by 3 injections of 100 μg peptide on days −8, −6 and −4 (dose escalation schedule). On day 0, the mice were immunised subcutaneously in the base of the tail with 50 μg antigen (parental peptide) emulsified in CFA (peptide/CFA). Ten days after immunisation, draining lymph nodes (LN) and spleens were harvested. LN cells and splenocytes were isolated and cultured in X-vivo 15 medium (supplemented with 2 mM L-glutamine, 50 U/mL penicillin and 50 U/mL streptomycin; Lonza) in 96-well flat bottom plates. To investigate antigen-induced cell proliferation, 0.5×10^6 cells/well were cultured (200 μl/well) for 72 hours with different antigen concentrations (0-25 μg/ml) or with 12.5 μg/ml purified protein derivative (PPD; priming control; Statens serum institut, Copenhagen, Denmark). After 72 hours, supernatant was harvested and stored at −80° C. until further analysis. IFN-γ concentrations in supernatants were assessed by cytokine ELISA (R&D Systems, Abingdon, UK) to measure cell activation.

In the case of “KKKAFVEQVANVVLKKK-NH2 [HIP-9K1-KKK, KKKAFVEQVANVVLKKK]”, the “behaves as apitope (response to peptide presented by fresh or fixed APC)” value [1] is reported as “behave as apitopes”, the “tolerization against the peptide itself / parental peptide” value ([2]; LN) is reported as “tolerization induced” and the “tolerization against SAg” value ([2]; LN, escalating dose regime s.c.) is reported as “tolerization induced”. For the same substance, the “tolerization against SAg” value ([2]; spleen) was “Tolerance is also induced” and the “tolerization against the peptide itself” value ([2]; spleen) was “Tolerance is also induced”.

From patent publication US11542316B2, “S-Arrestin peptides and therapeutic uses thereof” (APITOPE INTERNATIONAL NV, priority 2017, dated 2023)
